The values that follow come from patent publication US20090209492A1, “Lipase Inhibitors” (TRUSTEES OF TUFTS COLLEGE, priority 2004, published 2009).

The target of this assay is T1, endothelial lipase (Homo sapiens, UniProt Q9Y5X9).
T1 sequence (Q9Y5X9 21-500): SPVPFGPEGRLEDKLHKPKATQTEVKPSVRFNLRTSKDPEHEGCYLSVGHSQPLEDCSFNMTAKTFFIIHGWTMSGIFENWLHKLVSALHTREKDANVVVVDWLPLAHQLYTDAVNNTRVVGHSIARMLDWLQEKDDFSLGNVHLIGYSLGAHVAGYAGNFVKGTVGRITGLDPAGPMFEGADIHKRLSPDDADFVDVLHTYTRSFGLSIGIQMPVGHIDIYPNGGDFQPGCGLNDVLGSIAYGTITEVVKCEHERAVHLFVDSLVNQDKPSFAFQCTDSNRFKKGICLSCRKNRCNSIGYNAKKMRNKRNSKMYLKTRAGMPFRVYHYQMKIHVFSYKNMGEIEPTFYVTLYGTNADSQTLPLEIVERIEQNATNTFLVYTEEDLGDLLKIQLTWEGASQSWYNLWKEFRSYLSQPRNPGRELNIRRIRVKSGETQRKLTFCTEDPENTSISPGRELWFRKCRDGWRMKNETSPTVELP
In words: Endothelial lipase inhibiting activity of boronic acids. The following applies: for inhibition at 50 µM: 50 micromolar solution of each compound; for IC50: endothelial lipase. The class given is biochemical. The protocol:
The endothelial lipase inhibiting activity of various aliphatic boronic acids was tested.
The endothelial lipase inhibiting activity of various aromatic boronic acids was tested.

As a reminder, the inhibition is the relative decrease from the control value, in per cent. A high value points to a response far below the control. In turn, `CCCCCC/C=C/B(O)O` yielded an inhibition at 50 µM (aliphatic boronic acids) of 77%.

In turn, `OB(O)Cc1ccccc1` gave an inhibition at 50 µM (aromatic boronic acids) of 10%.

The term IC50 denotes the concentration that inhibits the measured activity by half. The low end stands for greater potency, the high end for weaker potency. With `C=CCCCB(O)O`, under “aliphatic boronic acids”, the inhibition at 50 µM stood at 72% and the IC50 came to 26 µM.

Consider `CCCCCB(O)O`, for which 50 µM produced 42% inhibition (aliphatic boronic acids).

In turn, `OB(O)C1CCCC1` returned an inhibition at 50 µM (aromatic boronic acids) of 7%.

Take `CCCCCCC/C=C/B(O)O`: the inhibition at 50 µM (aliphatic boronic acids) turned out to be 82%.

With `O=Cc1ccc(B(O)O)cc1`, the inhibition at 50 µM (aromatic boronic acids) stood at 60%.

For `CC(C)CB(O)O`, at 50 µM the inhibition (aliphatic boronic acids) was 9%.

In turn, `CCCCCCCCCCCCCCCCB(O)O` yielded an inhibition at 50 µM (aliphatic boronic acids) of 62%.

`OB(O)C1CCCCC1`: testing at 50 µM (aromatic boronic acids) gave an inhibition of 1%.

For the setting “aromatic boronic acids”, `Cc1ccc(B(O)O)cc1` showed an inhibition at 50 µM of 88% and an IC50 of 17 µM.

Under “aliphatic boronic acids”, `CCCCCCCCCCCCCCCB(O)O` registered an inhibition at 50 µM of 90%.

Compound `CCCCCCB(O)O` came in with an inhibition at 50 µM (aliphatic boronic acids) of 53%.

Under “aromatic boronic acids”, `CCc1ccc(B(O)O)cc1` registered an inhibition at 50 µM of 83% and an IC50 of 11 µM.

`CCCCC/C=C/B(O)O`: testing at 50 µM (aliphatic boronic acids) gave an inhibition of 63%.

As for `CCCCCCCCCCCCCCB(O)O`, where the note is “aliphatic boronic acids”, 50 µM produced 89% inhibition and the IC50 turned out to be 1 µM.

Take `CC(=O)c1ccc(B(O)O)cc1`: under “aromatic boronic acids”, the inhibition at 50 µM is 80% and the IC50 is 26 µM.
